Experimental data from patent publication US20230132823A1, “BI-FUNCTIONAL COMPOUNDS AND METHODS FOR TARGETED UBIQUITINATION OF ANDROGEN RECEPTOR” (MONTELINO THERAPEUTICS, INC., priority 2020, published 2023).
Like-named read-outs stand apart in the source and are kept apart here. Where a SMILES comes first, the peptide text is derived from it. [ ]: non-standard residue; d: D form. The star is where a group is joined. ξ: configuration not given here. X1 = O=C(COc1c(-c2csc(N3CCOCC3)n2)ccc(F)c1F)NCCCCCCN*; Dip = N[C@H](C(=O)O)C(c1ccccc1)c1ccccc1; Chg = N[C@H](C(=O)O)C1CCCCC1; NMeA = CN[C@@H](C)C(=O)O; ξP = O=C(O)C1CCCN1

What was measured:
22Rv1-Enz^R cells = experiment: 22Rv1-Enz^R cell proliferation (cell count, Experimental Example 3); format: cell-based, human
Protocol: The human prostate cancer cell line, 22Rv1 has been reported to express a high level of AR-V7. Thus, 22Rv1 was seeded at 50,000 cells/well on a 24-well plate in quadruplicates and treated with test compound in concentrations ranging up to 20 μM for four days. Standard culture media was RPMI-1640 supplemented with 10% fetal bovine serum. The test compound initially was dissolved in DMSO at 50 mM. This stock solution was then diluted as needed for the indicated concentrations. At the end of the four-day period, cells were harvested using 1% trypsin and counted using an automated cell counter.
(§1) Cell Culture. Human CaP cell lines, LNCaP, 22Rv1, VCaP, PC3, and DU145 are obtained from the American Type Culture Collection (ATCC) and maintained in the standard culture media: RPMI-1640 supplemented with 10% fetal bovine serum (FBS). LNCaP, 22Rv1, and VCaP are androgen-responsive cell lines, while PC3 and DU145 are not. To establish SAT resistant CaP cell lines, LNCaP, 22Rv1, and VCaP are treated continuously with 10-50 μM abiraterone, apalutamide, darolutamide, or enzalutamide. After 3-6 months, stable cell lines are established and designated as LNCaP-Abi^R, LNCaP-Apa^R, LNCaP-Daro^R, LNCaP-Enz^R, VCaP-Abi^R, VCaP-Apa^R, VCaP-Daro^R, VCaP-Enz^R, 22Rv1-Abi^R, 22Rv1-Apa^R, 22Rv1-Daro^R and 22Rv1-Enz^R. Unless otherwise specified, the standard culture media for these SAT-resistant cell lines included 10 μM of their respective SAT. For the proteasome inhibitor study, the inhibitors MG132 and Epoxomicin are used. The E3 ligase inhibitors Heclin, Nutlin 3a, Thalidomide, and VH298 are used. Cell lines obtained from ATCC are confirmed by checking their morphology using optical microscopy, establishing baselines for cell proliferation, verifying species of origin using isoenzymology, and characterizing the cell's DNA fingerprint using short tandem repeat (STR) profiling. Mycoplasma contamination is also assessed using a PCR based detection system.

AR-FL = biological target: T1, AR-FL (Homo sapiens, UniProt P10275, DUP590-628/H875Y); experiment: Immunoblot analysis of AR-FL protein in CaP cells (Experimental Example 3); format: cell-based; parameters: decreased AR-V7 and AR-FL protein expression levels in 22Rv1 cells; endogenous in cells; host or cells: 22Rv1 (also VCaP, LNCaP and SAT-resistant sublines)
T1 sequence (P10275 with tags, fused parts or gaps DUP590-628/H875Y): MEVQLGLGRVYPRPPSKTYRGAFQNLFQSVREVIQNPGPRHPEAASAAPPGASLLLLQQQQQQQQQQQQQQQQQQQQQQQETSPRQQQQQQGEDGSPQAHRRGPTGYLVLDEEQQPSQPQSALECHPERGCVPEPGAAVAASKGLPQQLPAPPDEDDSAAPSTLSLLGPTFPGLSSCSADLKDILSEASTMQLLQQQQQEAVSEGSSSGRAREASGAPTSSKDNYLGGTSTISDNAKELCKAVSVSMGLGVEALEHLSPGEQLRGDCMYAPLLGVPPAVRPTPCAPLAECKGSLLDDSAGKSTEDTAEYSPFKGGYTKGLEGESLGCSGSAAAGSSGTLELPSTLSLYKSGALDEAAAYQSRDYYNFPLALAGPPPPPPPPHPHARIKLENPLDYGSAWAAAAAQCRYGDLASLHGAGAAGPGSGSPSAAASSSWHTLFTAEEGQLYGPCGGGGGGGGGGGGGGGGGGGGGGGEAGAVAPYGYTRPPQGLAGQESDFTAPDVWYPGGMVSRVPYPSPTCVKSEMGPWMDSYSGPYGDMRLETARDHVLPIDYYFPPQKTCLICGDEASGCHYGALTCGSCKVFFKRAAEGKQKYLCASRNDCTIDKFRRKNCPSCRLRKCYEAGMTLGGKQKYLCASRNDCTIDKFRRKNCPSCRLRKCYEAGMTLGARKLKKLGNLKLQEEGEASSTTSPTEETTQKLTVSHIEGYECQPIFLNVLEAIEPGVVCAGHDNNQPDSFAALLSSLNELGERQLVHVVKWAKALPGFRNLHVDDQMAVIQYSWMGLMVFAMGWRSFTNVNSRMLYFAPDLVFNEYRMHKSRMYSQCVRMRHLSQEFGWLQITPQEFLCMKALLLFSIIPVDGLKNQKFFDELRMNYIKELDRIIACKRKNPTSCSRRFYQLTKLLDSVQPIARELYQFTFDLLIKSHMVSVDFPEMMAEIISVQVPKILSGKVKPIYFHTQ
Protocol: as §1
Immunoblot Analysis. CaP cells are collected and lysed with the lysis buffer (20 mM Tris-HCl (pH 7.5), 150 mM NaCl, 1 mM Na2EDTA, 1 mM EGTA, 1% Triton, 2.5 mM sodium pyrophosphate, 1 mM beta-glycerophosphate, 1 mM Na3VO4, and 1 μg/ml leupeptin) containing 1 mM phenylmethylsulfonyl fluoride (PMSF). Cell lysates are then centrifuged and protein in the supernatant is quantified. After separating 25-50 μg of protein using SDS-PAGE, samples are incubated with AR-V7, GR, PR, ERα, AR-FL, ubiquitin, or β-actin antibodies. For AR-V7, AR-FL, PR, GR, and ERα immunoblots, primary antibody is diluted 1:1000 in 5% skim milk. For the β-actin immunoblot, 1:10000 diluted primary antibody is used. All membranes are incubated overnight at 4° C. Following the incubation with appropriate secondary antibody, immunoblots are analyzed using SuperSignal West Femto Maximum Sensitivity Substrate (ThermoFisher).

Structure (SMILES)	reduction of 22Rv1-Enz^R cell counts after pretreatment with MG-132 (22Rv1-Enz^R cells; 10 μM, 4 days, MG-132 (5 μM) pretreatment)	DC50 (AR-FL; 24 hours, immunoblot, read-out: DC50, concentration at which 50% of AR-FL is degraded in 24 hours) [nM]	22Rv1-EnzR cell count, % of control (22Rv1-Enz^R cells; 1 μM, 6 days)	DC50 (AR-FL; 22Rv1, 24 hours, immunoblot, read-out: DC50, concentration at which 50% of AR-FL degraded in 24 hours) [nM]	concentration from which AR-FL protein expression is decreased (immunoblot) (AR-FL; 22Rv1 cells, 24 hours, 0, 0.01, 0.1, 1 and 10 μM tested) [µM]	AR-FL protein expression level in parental and SAT-resistant 22Rv1, VCaP and LNCaP cells (AR-FL; immunoblot)
CN[C@@H](C)C(=O)N[C@H](C(=O)N1CCCC1C(=O)N[C@H](C(=O)NCCCCCCNC(=O)COc1c(-c2csc(N3CCOCC3)n2)ccc(F)c1F)C(c1ccccc1)c1ccccc1)C1CCCCC1 (stereo partly drawn) [Example 26, (S)-1-((S)-2-cyclohexyl-2-((S)-2-(methylamino)propanamido)acctyl)-N-((S)-1-((6-(2-(2,3-difluoro-6-(2-morpholinothiazol-4-yl)phenoxy)acetamido)hexyl)amino)-1-oxo-3,3-diphenylpropan-2-yl)pyrrolidine-2-carboxamide] (H-[NMeA][Chg][ξP][Dip]-X1)	substantially blocked	< 500	–	–	–	–
Cc1ncsc1-c1ccc([C@H](C)NC(=O)[C@@H]2C[C@@H](O)CN2C(=O)[C@@H](NC(=O)CCCCNC(=O)COc2c(-c3csc(N4CCOCC4)n3)ccc(F)c2F)C(C)(C)C)cc1 [Example 16, (2S,4R)-1-((S)-2-(5-(2-(2,3-difluoro-6-(2-morpholinothiazol-4-yl)phenoxy)acetamido)pentanamido)-3,3-dimethylbutanoyl)-4-hydroxy-N-((S)-1-(4-(4-methylthiazol-5-yl)phenyl)ethyl)pyrrolidine-2-carboxamide]	–	–	about 45 % of control	2000	1	decreases the protein expression levels
